Results taken from PMC12845261, “Design, Synthesis, and Biological Evaluation of N-Acyl-Hydrazone-Linked Quinazolinone Derivatives with Antioxidant, Antimicrobial, and Anticancer Potential” (Pharmaceuticals, 2025).
In brackets after ≈: the same amount, converted by molar mass.

Experiments:
P. aeruginosa ATCC 27853 [1] = assay: Qualitative antimicrobial activity, adapted Kirby-Bauer (inhibition zone); assay type: cell-based; conditions: 10 μL of 10 mg/mL DMSO stock, mean ± SD
Protocol: (§1) For the evaluation of antimicrobial activity, the following reference strains were used: S. aureus ATCC 25923, E. faecalis ATCC 29212, E. coli ATCC 25922, P. aeruginosa ATCC 27853 and C. albicans ATCC 10231. The microbial suspensions were prepared at a density of 1.5 × 10^8 CFU/mL, corresponding to the McFarland 0.5 nephelometric standard. These suspensions were obtained from 18–24 h cultures developed on solid media (Mueller-Hinton for bacteria, Sabouraud for yeast). Antimicrobial activity was assessed using an adapted Kirby-Bauer method according to CLSI (Clinical and Laboratory Standards Institute). In addition to the 10 mg/mL stock solutions prepared in DMSO for each compound, a solvent control was used. Each stock solution (10 μL) was distributed in spot on the medium inoculated with the interest strain. After measuring the diameter of the inhibition zone (IZD) around the spot (mm), the results were expressed as the mean ± standard deviation (SD) for each compound tested in duplicate.

E. coli ATCC 25922 [2] = assay: as above; assay type: cell-based; conditions: 10 μL of 10 mg/mL DMSO stock, mean ± SD
Protocol: as §1

E. faecalis ATCC 29212 [3] = assay: as above; assay type: cell-based; conditions: 10 μL of 10 mg/mL DMSO stock, mean ± SD
Protocol: as §1

S. aureus ATCC 25923 [4] = assay: as above; assay type: cell-based; conditions: 10 μL of 10 mg/mL DMSO stock, mean ± SD
Protocol: as §1

C. albicans ATCC 10231 = assay: as above; assay type: cell-based; conditions: 10 μL of 10 mg/mL DMSO stock, mean ± SD
Protocol: as §1

P. aeruginosa ATCC 27853 [5] = assay: Quantitative antimicrobial activity, serial binary microdilution (MIC, IC50); assay type: cell-based; conditions: Pseudomonas aeruginosa, ATCC27853, 24 h, 37 °C, DMSO control 1.25
Outline: (§2)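 Two-fold broth microdilution over 5000–0.16 μg/mL (from 10 mg/mL DMSO stocks), Tryptone Soy Broth for bacteria and Sabouraud Broth for yeast, inoculum from 1.5 × 10^8 CFU/mL suspension of 18–24 h cultures. After 24 h at 37 °C, growth read visually and at 620 nm for MIC; viability % calculated against strain and sterility controls with DMSO control.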

E. coli ATCC 25922 [6] = assay: as above; assay type: cell-based; conditions: for MIC: Escherichia coli, ATCC25922, E. coli ATCC 25922, 24 h, 37 °C, DMSO control 1.25
Outline: as §2

E. faecalis ATCC 29212 [7] = assay: as above; assay type: cell-based; conditions: 37 °C, DMSO control 2.5; for MIC: Enterococcus faecalis, ATCC29212, 24 h; for MIC (mg/mL): 24 h
Outline: as §2

S. aureus ATCC 25923 [8] = assay: as above; assay type: cell-based; conditions: 24 h; for MIC / MIC (mg/mL): S. aureus ATCC 25923, 37 °C, DMSO control 2.5
Outline: as §2

E. coli ATCC 25922 [9] = assay: Microbicidal activity (MMC); assay type: cell-based; conditions: DMSO control 5
Protocol: For the evaluation of antimicrobial activity, the following reference strains were used: S. aureus ATCC 25923, E. faecalis ATCC 29212, E. coli ATCC 25922, P. aeruginosa ATCC 27853 and C. albicans ATCC 10231. To determine the MMCs, 5 μL of culture was taken from each well and distributed on solid medium. The plates were incubated for 20–24 h at 37 °C. The lowest concentration at which no microbial growth was observed was considered MMC.

[10] = Qualitative solubility in solvents; assay type: physicochemical
Protocol: The 2–5 mL reaction vials were loaded with a magnetic stirrer, 1 mmol of each reactant, acetohydrazide 2 and benzaldehydes, 4–4.5 mL of anhydrous ethanol and 2 drops of glacial acetic acid. Reaction conditions included 5 min of pre-stirring, followed by 40 min of irradiation at 100 °C, with the absorbance level set to “high”. The vials were left overnight in a refrigerator. The precipitates formed were filtered under vacuum, washed with cold ethanol and dried at room temperature. Thin-layer chromatography was performed to analyze and monitor the reaction. The compounds were confirmed by spectroscopic methods (FT-IR, ^1H-NMR and ^13C-NMR spectroscopy and mass spectrometry) and characterized by melting points, solubility and retention factors (Rf).

[11] = Staphylococcus aureus, ATCC25923

Structure (SMILES) | IZD (mm) (P. aeruginosa ATCC 27853 [1]) | IZD (mm) (E. coli ATCC 25922 [2]) | IZD (mm) (E. faecalis ATCC 29212 [3]) | IZD (mm) (S. aureus ATCC 25923 [4]) | IZD (mm) (C. albicans ATCC 10231) | MIC (P. aeruginosa ATCC 27853 [5]) | IC50 (antimicrobial activity) compared with solvent control (E. coli ATCC 25922 [6]; E. coli, versus DMSO, p < 0.05) | MIC (E. coli ATCC 25922 [6]) | MIC (E. faecalis ATCC 29212 [7]) | MIC (S. aureus ATCC 25923 [8]; [11]) | MMC (E. coli ATCC 25922 [9]) | Solubility ([10]; DMF) | Solubility ([10]; DMSO) | Solubility ([10]; acetone) | Solubility ([10]; methanol) | Solubility ([10]; water) | MIC (mg/mL) (E. faecalis ATCC 29212 [7]) | MIC (mg/mL) (S. aureus ATCC 25923 [8]) | IC50 (S. aureus ATCC 25923 [8]; Staphylococcus aureus, ATCC25923, S. aureus, four-parameter fit of microbial viability) | Solubility ([10]; 2-propanol)
COc1cccc(/C=N/NC(=O)Cn2c(C)nc3ccccc3c2=O)c1O [Compound 1c, N′-[(E)-(2-hydroxy-3-methoxyphenyl)methylidene]-2-(2-methyl-4-oxoquinazolin-3(4H)-yl)acetohydrazide] | 0.00 ± 0.00 mm | 0.00 ± 0.00 mm | 7.67 ± 0.58 mm | 7.67 ± 0.58 mm | 6.67 ± 0.58 mm | 1250 µg/mL (≈ 3.41 mM) | significantly lower IC50 values than the solvent control | 1250 µg/mL (≈ 3.41 mM) | 2500 µg/mL (≈ 6.82 mM) | 2500 µg/mL (≈ 6.82 mM) | 5 mg/mL | soluble | soluble | soluble | slightly soluble | insoluble |  |  |  | 
Cc1nc2ccccc2c(=O)n1CC(=O)N/N=C/c1cc(Br)ccc1O [Compound 1a, N′-[(E)-(5-bromo-2-hydroxyphenyl)methylidene]-2-(2-methyl-4-oxoquinazolin-3(4H)-yl)acetohydrazide] | 0.00 ± 0.00 mm | 0.00 ± 0.00 mm | 0.00 ± 0.00 mm | 0.00 ± 0.00 mm | 0.00 ± 0.00 mm | 1250 µg/mL (≈ 3.01 mM) |  | 1250 µg/mL (≈ 3.01 mM) | 1250 µg/mL (≈ 3.01 mM) | 1250 µg/mL (≈ 3.01 mM) |  | soluble | soluble | soluble | slightly soluble | insoluble | specifically active | specifically active |  | 
COc1ccc(O)c(/C=N/NC(=O)Cn2c(C)nc3ccccc3c2=O)c1 [Compound 1e, N′-[(E)-(2-hydroxy-5-methoxyphenyl)methylidene]-2-(2-methyl-4-oxoquinazolin-3(4H)-yl)acetohydrazide] | 0.00 ± 0.00 mm | 0.00 ± 0.00 mm | 0.00 ± 0.00 mm | 0.00 ± 0.00 mm | 0.00 ± 0.00 mm | 5000 µg/mL (≈ 13.6 mM) |  | 5000 µg/mL (≈ 13.6 mM) | 5000 µg/mL (≈ 13.6 mM) | 1250 µg/mL (≈ 3.41 mM) | 5 mg/mL | soluble | soluble |  | slightly soluble | insoluble |  | specifically active |  | 
Cc1nc2ccccc2c(=O)n1CC(=O)NN [Compound 2, 2-(2-methyl-4-oxoquinazolin-3(4H)-yl)acetohydrazide] | 0.00 ± 0.00 mm | 0.00 ± 0.00 mm | 0.00 ± 0.00 mm | 0.00 ± 0.00 mm | 6.33 ± 1.53 mm | 1250 µg/mL (≈ 5.38 mM) |  | 1250 µg/mL (≈ 5.38 mM) | 2500 µg/mL (≈ 10.8 mM) | 2500 µg/mL (≈ 10.8 mM) |  |  |  |  |  |  |  |  |  | 
COc1cc(/C=N/NC(=O)Cn2c(C)nc3ccccc3c2=O)cc([N+](=O)[O-])c1O [Compound 1f, N′-[(E)-(4-hydroxy-3-methoxy-5-nitrophenyl)methylidene]-2-(2-methyl-4-oxoquinazolin-3(4H)-yl)acetohydrazide] | 0.00 ± 0.00 mm | 0.00 ± 0.00 mm | 0.00 ± 0.00 mm | 0.00 ± 0.00 mm | 0.00 ± 0.00 mm | 1250 µg/mL (≈ 3.04 mM) |  | 1250 µg/mL (≈ 3.04 mM) | 1250 µg/mL (≈ 3.04 mM) | 2500 µg/mL (≈ 6.08 mM) |  | soluble | soluble | soluble | slightly soluble | insoluble | specifically active |  |  | 
Cc1nc2ccccc2c(=O)n1CC(=O)N/N=C/c1cc(Br)cc(Br)c1O [Compound 1b, N′-[(E)-(3,5-bromo-2-hydroxyphenyl)methylidene]-2-(2-methyl-4-oxoquinazolin-3(4H)-yl)acetohydrazide] | 0.00 ± 0.00 mm | 0.00 ± 0.00 mm | 0.00 ± 0.00 mm | 12.33 ± 0.58 mm | 0.00 ± 0.00 mm | 5000 µg/mL (≈ 10.1 mM) |  | 1250 µg/mL (≈ 2.53 mM) | > 5000 µg/mL | 312 µg/mL (≈ 0.632 mM) |  | soluble | soluble | soluble | slightly soluble | insoluble |  | specifically active | 85.7 µg/mL (≈ 0.173 mM) | slightly soluble
COc1ccc(/C=N/NC(=O)Cn2c(C)nc3ccccc3c2=O)c(O)c1 [Compound 1d, N′-[(E)-(2-hydroxy-4-methoxyphenyl)methylidene]-2-(2-methyl-4-oxoquinazolin-3(4H)-yl)acetohydrazide] | 0.00 ± 0.00 mm | 0.00 ± 0.00 mm | 0.00 ± 0.00 mm | 0.00 ± 0.00 mm | 0.00 ± 0.00 mm | 1250 µg/mL (≈ 3.41 mM) |  | 1250 µg/mL (≈ 3.41 mM) | 5000 µg/mL (≈ 13.6 mM) | 2500 µg/mL (≈ 6.82 mM) | 5 mg/mL | soluble | soluble | soluble | slightly soluble | insoluble |  |  |  | 
